Structures are written as SMILES.

As a reminder, the melting point is the temperature of the solid-liquid transition. On to `CC1CCCN(c2ccc(-c3c4cccc(C(F)(F)F)c4nn3Cc3c(F)cc(F)cc3F)cc2)C1` (stereo not drawn), for which the melting point came to 103 °C. Under `COC(=O)C[C@H]1CCCN(c2ccc(-c3c4cccc(C(F)(F)F)c4nn3Cc3c(F)cc(F)cc3F)cc2)C1` stands 103 °C. Under `COC(=O)C[C@@H]1CCCN(c2ccc(-c3c4cccc(C(F)(F)F)c4nn3Cc3c(F)cc(F)cc3F)cc2)C1` stands 103 °C; under `COc1ccc(-c2c3cccc(C(F)(F)F)c3nn2CC(C)C)c(OC)c1` [Example 106, 3-(2,4-DIMETHOXYPHENYL)-2-ISOBUTYL-7-(TRIFLUOROMETHYL)-2H-INDAZOLE], 111 to 112 °C. The value for `COc1ccc(-c2c3cccc(C(F)(F)F)c3nn2CC2CCCCC2)c(OC)c1` [Example 107, 2-(CYCLOHEXYLMETHYL)-3-(2,4-DIMETHOXYPHENYL)-7-(TRIFLUOROMETHYL)-2H-INDAZOLE] was 156 to 157 °C; that for `COc1ccc(-c2c3cccc(C(F)(F)F)c3nn2C2CCC2)c(OC)c1` [Example 109, 2-CYCLOBUTYL-3-(2,4-DIMETHOXYPHENYL)-7-(TRIFLUOROMETHYL)-2H-INDAZOLE] was 51 to 52 °C; that for `CCC(CC)n1nc2c(C(F)(F)F)cccc2c1-c1ccc(OC)cc1OC` [Example 110, 3-(2,4-DIMETHOXYPHENYL)-2-(1-ETHYLPROPYL)-7-(TRIFLUOROMETHYL)-2H-INDAZOLE] was 138 to 139 °C. As to `Fc1ccc(-c2c3cccc(C(F)(F)F)c3nn2Cc2c(F)cc(F)cc2F)cc1` [Example 139, 3-(4-FLUOROPHENYL)-2-(2,4,6-TRIFLUOROBENZYL)-7-(TRIFLUOROMETHYL)-2H-INDAZOLE], the melting point is 125 °C. Under `Fc1ccc(-c2c3cccc(N4CCCC4)c3nn2Cc2ccc(F)cc2F)cc1` [Example 426, 2-(2,4-DIFLUOROBENZYL)-3-(4-FLUOROPHENYL)-7-PYRROLIDIN-1-YL-2H-INDAZOLE] stands 112 to 114 °C.

The record behind these values is patent US7592363B2, “Indazoles” (Wyeth, priority 2004, dated 2009).
